pEC50: −log10 of the molar value.
Columns and labels:
[1] = tested on: auditory thalamocortical pathway; assay: Thalamocortical LTP induction by CCK injection in the auditory cortex with low-frequency stimulation of MGv (fEPSP slope); assay type: in vivo; details: CCK 1 μM, 1 μl into ACx, n=8, p<0.001, FIG. 3E
CCKBR = biological target: T1, CCKBR (Homo sapiens, UniProt P32239); assay: Calcium response (Fluo-8 No Wash Calcium Assay Kit) in GPCR-overexpressing CHO cells; assay type: cell-based
T1 construct: expressed in transfected cells; host or cells: CHO cells (CHO-CCKBR)
T1 sequence (P32239 1-447): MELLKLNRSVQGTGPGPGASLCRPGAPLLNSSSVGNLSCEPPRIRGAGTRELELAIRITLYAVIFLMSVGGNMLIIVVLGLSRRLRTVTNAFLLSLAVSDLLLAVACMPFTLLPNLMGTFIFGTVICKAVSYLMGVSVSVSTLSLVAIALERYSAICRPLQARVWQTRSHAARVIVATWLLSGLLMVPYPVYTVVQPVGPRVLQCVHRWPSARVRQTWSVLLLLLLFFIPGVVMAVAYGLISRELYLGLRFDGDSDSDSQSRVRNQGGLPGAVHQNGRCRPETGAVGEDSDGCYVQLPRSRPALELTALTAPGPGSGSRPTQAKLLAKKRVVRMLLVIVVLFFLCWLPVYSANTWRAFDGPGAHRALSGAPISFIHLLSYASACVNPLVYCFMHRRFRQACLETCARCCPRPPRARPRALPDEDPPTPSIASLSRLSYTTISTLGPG
Experimental: In vitro screening system, HT-267 have been tested and measured calcium response by Fluo-8 No Wash Calcium Assay Kit in GPCRs overexpressed CHO cells, including CHO-CCKBR, CHO-CCKAR, CHO-HTR2B cells. These tests and measurements are performed as described in CN 113929737 A by Tortorella, et al., assigned to Regenerative Medicine and Health Innovation Centre Co., Ltd., et al., published on Jan. 14, 2022.

[2] = tested on: auditory thalamocortical pathway; assay: HFS-induced thalamocortical LTP in CCK-KO mice with infusion into ACx (fEPSP slope); assay type: in vivo; details: HT-267 5 μM, 0.5 μl into ACx, n=6, p<0.0001, FIG. 5C
Description: The electrical stimulation is generated by an ISO-Flex isolator (A.M.P.I., Israel), which is controlled by a multifunction processor (RX6, TDT). The electrical current pulses for baseline test are 0.5 ms, 50-150 μA and presented every 10 s. The theta burst stimulation (TBS) contains four trails of 10 bursts at 5 Hz with the interval of 10 s between the trails, and each burst consists of 5 pulses at 100 Hz.
[…], two customized microelectrode arrays with four tungsten electrodes each, impedance: 0.5-1 MS2 (recording), and 200-500 kΩ (ES) (FHC, U.S.), are used for the auditory cortical neuronal activity recording and medial geniculate body ventral division (MGv) electrical stimulation and monitoring, respectively. […] 70 dB, 100 ms, noise bursts are presented every 10 s during the insertion of the electrode arrays, and neuronal activities are monitored as the electrode arrays are lowered until robust noise responses are achieved on both arrays. The final stimulating and recording positions are determined by maximizing the cortical field excitatory postsynaptic potential (fEPSP) amplitude triggered by the electrical stimulation in MGv.
The fEPSPs, which are elicited by 0.5 ms electrical current pulses, are amplified (×1000) and filtered (1 Hz-5 kHz), recorded with a 25 kHz sampling rate, and stored in a PC by OpenEx software (TDT). Before the recording, an input-output function is measured. […]

[3] = tested on: noise-induced tinnitus mice; assay: Tinnitus mouse model, gap pre-pulse inhibition of the acoustic startle reflex (GPIAS) with sound therapy; assay type: in vivo; details: 0.2 mg/kg intraperitoneal, one week (4 treatment days), combined with sound exposure; 12.6k, 16k, 20.1k, 28.7k Hz; FIGS. 6F-6I
Experimental: HT-267 is tested in the tinnitus mouse model. […] 7-9 weeks after tinnitus induction, more than 50% of mice developed tinnitus.
The inventors use the standard approach for assessing tinnitus in a rodent model, namely gap pre-pulse inhibition of the acoustic startle reflex (GPIAS) (FIGS. 2A-B). […] (Upper) Background sound and startle speakers are placed 10 and 13 cm respectively, from the point of microphone calibration. Signals from three force sensors placed under the testing tube in a triangular formation are averaged in a custom-made circuit and transmitted to TDT digital signal processor (DSP) for further analysis. (Lower) Timeline of a single GPIAS testing session. A GPIAS testing session consists of 3 blocks, lasting 36 minutes in total. The first block is the acclimation phase, lasting five minutes, where white noise is played from the “Cue” speaker for 5 minutes. Block two is the startle acclimation phase. To prevent outlier trials at the beginning of the testing session, 10 startle-only trials without any background sound are delivered to the animal. After block two, block three takes place, lasting 30 minutes. The 30 minute-long GPIAS session consisting of 300 individual trials (Five different background (BG) frequencies tested, for both GAP and NO_GAP conditions with 30 repeats for each BG frequency×GAP/NO_GAP condition pair). Each square represents one minute in the timeline. […]

[4] = elimination half-life (t1/2) in plasma

half-life (in vivo; [4])	pEC50 (CCKBR; CHO-CCKBR cells)	receptor specificity of calcium response (CCKBR; CHO-CCKBR vs CHO-CCKAR and CHO-HTR2B cells, FIG. 1)	Tmax (in vivo)	blood-brain barrier passage (in vivo)	uptake rate of brain (in vivo)	half-life (in vivo; t1/2 in brain)	Molecule	normalized fEPSP slope after injection and LFS [1]	rescue of HFS-induced thalamocortical LTP (normalized fEPSP slope) [2]	change of GPIAS ratio pre- vs post-treatment [3]
							cholecystokinin [CCK]	lead to an enhancement in fEPSP		
~13 min							CSCC[C@H](NC(=O)C(N)Cc1c[nH]c2ccccc12)C(=O)NC(CC(=O)O)C(=O)N[C@@H](Cc1ccccc1)C(N)=O (some centres unmarked) [CCK-4, Cholecystokinin-4, reference compound]			
~105 min	~10.30	specifically activates CCKBR	~1.98 min	passes BBB easily	about 21.89%	~522 min	CSCCC(NC(=O)[C@H](N)Cc1c[nH]c2ccccc12)C(=O)N[C@@H](CC(=O)O)C(=O)N[C@@H](Cc1cccc(Br)c1)C(N)=O (some centres unmarked) [HT-267]		abolished LTP could be rescued	significantly reduces
